Test system: apyrase
Assay: Screen for apyrase inhibitors (Method 1, in vitro phosphate-release absorbance assay)
Type: biochemical
Settings: inhibitor conc at 1 mM stock, 1 hr room temperature, absorbance 630 nm; rounded average of two assay results
Outline: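 Phosphate-release colorimetric assay (Windsor method) in 60 mM Hepes, 3 mM MgCl2, 3 mM CaCl2, 3 mM ATP, pH 6.5, with compound or DMSO control added. Released phosphate developed with ammonium molybdate and ascorbic acid/TCA, then stopped with citrate/acetic acid.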

Row | % Inhibition of Apyrase | SMILES
1 | 57% | O=C(Nc1cccc(C(F)(F)F)c1)c1cccc(NS(=O)(=O)c2ccc(Cl)c(C(=O)O)c2)c1 [I-321, 2-chloro-5-(N-(3-((3-(trifluoromethyl)phenyl)carbamoyl)phenyl)sulfamoyl)benzoic acid]
2 | 1% | CCOc1ccc(NS(=O)(=O)c2cccc(C(=O)Nc3ccc(OC)cc3)c2)cc1 [I-614, 3-(N-(4-ethoxyphenyl)sulfamoyl)-N-(4-methoxyphenyl)benzamide]
3 | 56% | Cc1cccc(NC(=O)c2cc(S(=O)(=O)Nc3cccc(C)c3)ccc2Cl)c1 [I-518, 2-chloro-N-(m-tolyl)-5-(N-(m-tolyl)sulfamoyl)benzamide]
4 | 30% | N#Cc1cccc(NC(=O)c2ccc(S(=O)(=O)Nc3ccccc3F)cc2)c1 [I-406, N-(3-cyanophenyl)-4-(N-(2-fluorophenyl)sulfamoyl)benzamide]
5 | 65% | O=C(/C=C/c1cccc(Cl)c1)Nc1cccc(S(=O)(=O)Nc2ccc(Br)cc2)c1 [I-329, (E)-N-(3-(N-(4-bromophenyl)sulfamoyl)phenyl)-3-(3-chlorophenyl)acrylamide]
6 | 49% | COc1ccc(NS(=O)(=O)c2ccc(NC(=O)c3cc(Cl)cc(Cl)c3)cc2)cc1 [I-992, 3,5-dichloro-N-(4-(N-(4-methoxyphenyl)sulfamoyl)phenyl)benzamide]
7 | 48% | COc1ccc(C(=O)Nc2cccc(S(=O)(=O)Nc3ccc(Br)cc3)c2)cc1OC [I-333, N-(3-(N-(4-bromophenyl)sulfamoyl)phenyl)-3,4-dimethoxybenzamide]
8 | 44% | COc1ccc(NC(=O)c2cccc(S(=O)(=O)Nc3ccc4c(c3)OCO4)c2)cc1OC [I-277, 3-(N-(benzo[d][1,3]dioxol-5-yl)sulfamoyl)-N-(3,4-dimethoxyphenyl)benzamide]
9 | 16% | COc1ccc(NS(=O)(=O)c2ccc(C(=O)Nc3cccc(C(C)=O)c3)cc2)cc1 [I-413, N-(3-acetylphenyl)-4-(N-(4-methoxyphenyl)sulfamoyl)benzamide]

Continued, compound first:

Row | SMILES | % Inhibition of Apyrase
10 | O=C(Nc1[nH]ncc1-c1ccccc1)c1cccc(NS(=O)(=O)c2ccc(F)c(F)c2)c1 [I-657, 3-((3,4-difluorophenyl)sulfonamido)-N-(4-phenyl-1H-pyrazol-5-yl)benzamide] | 34%
11 | Cc1ccc([N+](=O)[O-])cc1NC(=O)c1cc(S(=O)(=O)Nc2ccc(Br)cc2)c(Cl)cc1Cl [I-49, 5-(N-(4-bromophenyl)sulfamoyl)-2,4-dichloro-N-(2-methyl-5-nitrophenyl)benzamide] | 11%
12 | Cn1nc2c(c1NC(=O)c1cccc(NS(=O)(=O)c3ccc(Br)cc3)c1)CCC2 [I-653, 3-((4-bromophenyl)sulfonamido)-N-(2-methyl-2,4,5,6-tetrahydrocyclopenta[c]pyrazol-3-yl)benzamide] | 44%
13 | CCOc1ncccc1C(=O)Nc1cccc(S(=O)(=O)N(C)c2ccccc2)c1 [I-711, 2-ethoxy-N-(3-(N-methyl-N-phenylsulfamoyl)phenyl)nicotinamide] | 60%
14 | O=C(Nc1cc(Cl)ccc1NS(=O)(=O)c1ccccc1F)c1ccccc1 [I-845, N-(5-chloro-2-((2-fluorophenyl)sulfonamido)phenyl)benzamide] | 1%
15 | O=C(Nc1ccc(S(=O)(=O)N2CCCC2)cc1)c1ccccc1NS(=O)(=O)c1cccc(C(F)(F)F)c1 [I-373, N-(4-(pyrrolidin-1-ylsulfonyl)phenyl)-2-((3-(trifluoromethyl)phenyl)sulfonamido) benzamide] | 71%
16 | CC1Cc2ccccc2N1S(=O)(=O)c1cccc(C(=O)Nc2ccc3c(c2)OCCCO3)c1 (stereo not shown) [I-582, N-(3,4-dihydro-2H-benzo[b][1,4]dioxepin-7-yl)-3-((2-methylindolin-1-yl)sulfonyl)benzamide] | 47%
